Earlier results, collected in article PMC8513935.
Each block holds one compound with its values, some of them ahead of it.

Experiments:
[1] = experimental, compiled by the authors from the literature (the ESI cites the sources)
[2] = derived by the authors as gas->solvent minus gas->water (a hypothetical dry solvent; the ESI), not a two-phase measurement
[3] = log P octanol/water from commercial databases, averaged (the ESI); settings: Octanol (wet), 25 C

log K of transfer, gas to solvent ([1]; Benzene, 25 C): 3.73 log10 K
log K of transfer, gas to solvent ([1]; Hexadecane, 25 C): 3.35 log10 K
log K of transfer, gas to solvent ([1]; Toluene, 25 C): 3.84 log10 K
log K of transfer, gas to solvent ([1]; Water, 25 C): 2.68 log10 K
log K of transfer, water to solvent ([2]; Benzene, 25 C): 1.05 log10 K
log K of transfer, water to solvent ([2]; Hexadecane, 25 C): 0.671 log10 K
log K of transfer, water to solvent ([2]; Toluene, 25 C): 1.16 log10 K
log K of transfer, water to solvent [3]: 1.67 log10 K
Structure (SMILES): CCCNCCC

Structure (SMILES): Cc1cc(C)c(C)cc1C
log K of transfer, gas to solvent ([1]; 2-Methylpropan-1-ol, 25 C): 4.77 log10 K
log K of transfer, gas to solvent ([1]; 2-Methylpropan-2-ol, 25 C): 4.85 log10 K
log K of transfer, gas to solvent ([1]; 3-Methylbutan-1-ol, 25 C): 4.86 log10 K
log K of transfer, gas to solvent ([1]; Butan-1-ol, 25 C): 4.92 log10 K
log K of transfer, gas to solvent ([1]; Butan-2-ol, 25 C): 4.85 log10 K
log K of transfer, gas to solvent ([1]; Decan-1-ol, 25 C): 5.01 log10 K
log K of transfer, gas to solvent ([1]; Di-n-butyl ether, 25 C): 5.27 log10 K
log K of transfer, gas to solvent ([1]; Diethyl Ether, 25 C): 5.38 log10 K
log K of transfer, gas to solvent ([1]; Ethanol, 25 C): 4.72 log10 K
log K of transfer, gas to solvent ([1]; Heptan-1-ol, 25 C): 4.97 log10 K
log K of transfer, gas to solvent ([1]; Hexadecane, 25 C): 5.03 log10 K
log K of transfer, gas to solvent ([1]; Hexan-1-ol, 25 C): 4.95 log10 K
log K of transfer, gas to solvent ([1]; Hexane, 25 C): 5.31 log10 K
log K of transfer, gas to solvent ([1]; Methanol, 25 C): 4.52 log10 K
log K of transfer, gas to solvent ([1]; Pentan-1-ol, 25 C): 4.92 log10 K
log K of transfer, gas to solvent ([1]; Propan-1-ol, 25 C): 4.79 log10 K
log K of transfer, gas to solvent ([1]; Propan-2-ol, 25 C): 4.75 log10 K
log K of transfer, gas to solvent ([1]; Water, 25 C): 0.53 log10 K
log K of transfer, water to solvent ([2]; 2-Methylpropan-1-ol, 25 C): 4.24 log10 K
log K of transfer, water to solvent ([2]; 2-Methylpropan-2-ol, 25 C): 4.32 log10 K
log K of transfer, water to solvent ([2]; 3-Methylbutan-1-ol, 25 C): 4.33 log10 K
log K of transfer, water to solvent ([2]; Butan-1-ol, 25 C): 4.39 log10 K
log K of transfer, water to solvent ([2]; Butan-2-ol, 25 C): 4.32 log10 K
log K of transfer, water to solvent ([2]; Decan-1-ol, 25 C): 4.48 log10 K
log K of transfer, water to solvent ([2]; Di-n-butyl ether, 25 C): 4.74 log10 K
log K of transfer, water to solvent ([2]; Diethyl Ether, 25 C): 4.85 log10 K
log K of transfer, water to solvent ([2]; Ethanol, 25 C): 4.19 log10 K
log K of transfer, water to solvent ([2]; Heptan-1-ol, 25 C): 4.44 log10 K
log K of transfer, water to solvent ([2]; Hexadecane, 25 C): 4.5 log10 K
log K of transfer, water to solvent ([2]; Hexan-1-ol, 25 C): 4.42 log10 K
log K of transfer, water to solvent ([2]; Hexane, 25 C): 4.78 log10 K
log K of transfer, water to solvent ([2]; Methanol, 25 C): 3.99 log10 K
log K of transfer, water to solvent ([2]; Pentan-1-ol, 25 C): 4.39 log10 K
log K of transfer, water to solvent ([2]; Propan-1-ol, 25 C): 4.26 log10 K
log K of transfer, water to solvent ([2]; Propan-2-ol, 25 C): 4.22 log10 K
log K of transfer, water to solvent [3]: 4.1 log10 K

log K of transfer, gas to solvent ([1]; 2-Methylpropan-2-ol, 25 C): 2.36 log10 K
log K of transfer, gas to solvent ([1]; CCl4, 25 C): 2.38 log10 K
log K of transfer, gas to solvent ([1]; Cyclohexanone, 25 C): 2.26 log10 K
log K of transfer, gas to solvent ([1]; Hexadecane, 25 C): 2.23 log10 K
log K of transfer, gas to solvent ([1]; Water, 25 C): -0.96 log10 K
log K of transfer, water to solvent ([2]; 2-Methylpropan-2-ol, 25 C): 3.32 log10 K
log K of transfer, water to solvent ([2]; CCl4, 25 C): 3.34 log10 K
log K of transfer, water to solvent ([2]; Cyclohexanone, 25 C): 3.22 log10 K
log K of transfer, water to solvent ([2]; Hexadecane, 25 C): 3.19 log10 K
log K of transfer, water to solvent [3]: 2.67 log10 K
Structure (SMILES): CC=C(C)C
